This passage reports viability, T/C and IC50 results from PubChem BioAssay AID1919017 (Molecular Pharmacology Branch, DTP, NCI, 2023).

Each structure is given as a SMILES string. Several values for one entry are separate records, joined by “and”; a condition that tells them apart may be missing. Identical values can stand only once. Bounds are passed on as bounds.

The test system of this experiment is SW1271 complex spheroids with HUVEC/MSC, growth, % test/control. The experiment in a line: Anticancer human tumor SW1271 cell line growth inhibition [AhR].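 On all read-outs here: spheroids exposed to agents for 7 days before readout.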 The settings on record: for viability, T/C: stronger effect = lower value. The text has this: Multicellular complex tumor spheroid response to aryl hydrocarbon receptor antagonists in combination with a variety of drugs and investigational agents in selected tumor cell lines
The current study was undertaken to assess response to aryl hydrocarbon receptor antagonists in combination with standard-of-care drugs and investigational agents in solid tumor complex spheroid models. Complex spheroids include a stromal component modeled by human endothelial cells (HUVEC) and fibroblasts modeled by human mesenchymal stem cells (MSCs). The concentration ranges selected for each drug and investigational agent were based upon clinically achievable concentrations if the clinical Cmax of the agent was known.
Compounds. The drugs and investigational agents: BAY 2416964 (NSC825713), GNF351 (NSC835774), CH-223191 (NSC835775), CPI-455 (NSC825282), aza-TdCyd (NSC777586), decitabine (NSC127716), belinostat (NSC758774), entinostat (NSC756642), pevonedistat (NSC761192), tazemetostat (NSC777109), talazoparib (NSC765396), olaparib (NSC753686), selinexor (NSC780203), nedisertib (M3814, NSC802822), bortezomib (NSC756655), venetoclax (NSC766270), doxorubicin (NSC123127), elimusertib (BAY189344, NSC800525), ceralasertib (AZD6738, NSC777638), TAK-243 (NSC785004), alisertib (NSC759677), etoposide (NSC141540), topotecan (NSC609699), eribulin (NSC707389), gemcitabine (NSC613327), carboplatin (NSC241240), cisplatin (NSC119875), and SN-38 (NSC673596) were obtained from the National Cancer Institute (NCI) Developmental Therapeutics Program Chemical Repository (32). The FDA-approved anticancer drug set is available from the Developmental Therapeutics Program at https://dtp.cancer.gov/organization/dscb/obtaining/available plates.htm. […] The stock solutions were prepared in dimethyl sulfoxide (DMSO, Sigma-Aldrich, St. Louis, MO, cat. D2650), except for the platinum compounds which were prepared in saline (Quality Biological, Gaithersburg, MD, cat. 114-055-101), at 800-fold the tested concentration and stored at -70 degrees C prior to their use. All drugs and investigational agents were tested over a range starting from a high concentration at or near the clinical Cmax and decreasing in half-log increments. If the clinical Cmax for an agent had not been determined, the highest concentration tested was 10 microM (Table 1).
Cell Culture. All cells were maintained in an incubator at 37 degrees C and 5% CO2 with 95% humidity. The PDC lines were cultured according to standard operating procedures established by the NCI PDMR (https://pdmr.cancer.gov). Briefly, all PDCs were thawed and cultured in Matrigel-coated flasks prepared with a working solution of 1X Ham's F-12 nutrient mix, without supplementation (Invitrogen, Waltham, MA, cat. 11765054), 100 U/mL penicillin-streptomycin (Invitrogen, cat. 15140122), and 2.5% Matrigel (Corning Inc., Corning, NY, cat. 354248) for the first three passages. All PDCs were cultured in complete DMEM/F-12 media containing advanced DMEM/F-12 (Invitrogen, cat. 12634028), 4.9% defined fetal bovine serum, heat inactivated (HyClone Laboratories Inc., Logan, UT, cat. SH30070.03HI), 389 ng/mL hydrocortisone (Sigma-Aldrich, cat. H4001), 9.7 ng/mL human EGF recombinant protein (Invitrogen, cat. PHG0313), 23.4 microg/mL adenine (Sigma-Aldrich, cat. A2786), 97.3 U/mL penicillin-streptomycin (Invitrogen, cat. 15140122), 1.9 mM L-glutamine (Invitrogen, cat. 25030081), and 9.7 microM Y-27632 dihydrochloride (Tocris Bioscience, Bristol, United Kingdom, cat. 1254). The PDCs were cultured in complete DMEM/F12 media without 10 microM Y-27632 dihydrochloride for at least two passages prior to the screen. The established cell lines NCI-H1341 and […] were cultured in DMEM/F-12, HEPES (Invitrogen, cat. 11330032), 5% defined fetal bovine serum (HyClone Laboratories Inc., cat. SH30070.03), ITS premix universal culture supplement [insulin (5 microg/mL), transferrin (5 microg/mL), and selenious acid (5 ng/mL)] […]

Setting [1] is: curve of first compound, second compound 0.1 µM.
[2] abbreviates: curve of first compound, second compound 0.316 µM.
[3] abbreviates: curve of first compound, second compound 1 µM.
Setting [4] is: curve of first compound, second compound 3.16 µM.
Setting [5] is: curve of first compound, second compound 10 µM.
Where [6] appears, read: second compound 0.1 µM, first compound 0.0316 µM.
Setting [7] is: second compound 0.1 µM, first compound 0.1 µM.
[8] abbreviates: second compound 0.1 µM, first compound 0.316 µM.
[9] abbreviates: second compound 0.1 µM, first compound 1 µM.
[10] abbreviates: second compound 0.1 µM, first compound 3.16 µM.
[11] abbreviates: second compound 0.1 µM, first compound 10 µM.
[12] abbreviates: second compound 0.316 µM, first compound 0.0316 µM.
The mark [13] stands for this setting: second compound 0.316 µM, first compound 0.1 µM.
[14] abbreviates: second compound 0.316 µM, first compound 0.316 µM.
Setting [15] is: second compound 0.316 µM, first compound 1 µM.
Setting [16] is: second compound 0.316 µM, first compound 3.16 µM.
The mark [17] stands for this setting: second compound 0.316 µM, first compound 10 µM.
The mark [18] stands for this setting: second compound 1 µM, first compound 0.0316 µM.
[19] abbreviates: second compound 1 µM, first compound 0.1 µM.
Where [20] appears, read: second compound 1 µM, first compound 0.316 µM.
[21] abbreviates: second compound 1 µM, first compound 1 µM.
Setting [22] is: second compound 1 µM, first compound 3.16 µM.
[23] abbreviates: second compound 1 µM, first compound 10 µM.
Where [24] appears, read: second compound 3.16 µM, first compound 0.0316 µM.
[25] abbreviates: second compound 3.16 µM, first compound 0.1 µM.
The mark [26] stands for this setting: second compound 3.16 µM, first compound 0.316 µM.
The mark [27] stands for this setting: second compound 3.16 µM, first compound 1 µM.
Setting [28] is: second compound 3.16 µM, first compound 3.16 µM.
The mark [29] stands for this setting: second compound 3.16 µM, first compound 10 µM.
The mark [30] stands for this setting: second compound 10 µM, first compound 0.0316 µM.
[31] abbreviates: second compound 10 µM, first compound 0.1 µM.
Setting [32] is: second compound 10 µM, first compound 0.316 µM.
The mark [33] stands for this setting: second compound 10 µM, first compound 1 µM.
Where [34] appears, read: second compound 10 µM, first compound 3.16 µM.
The mark [35] stands for this setting: second compound 10 µM, first compound 10 µM.

On to `Nc1ncn(C2CC(O)C(CO)O2)c(=O)n1` (centres undefined), for which the viability, T/C runs as follows: (compound 0.00316 µM) 97.1% and 72.6% and 93.8%; (compound 0.01 µM) 107% and 124% and 97%; (compound 0.0316 µM) 95.4% and 81.6% and 69.9%; (compound 0.1 µM) 86.8% and 94.5% and 63.9%; (compound 0.316 µM) 93.2% and 73.9% and 68.4%; (compound 1 µM) 101% and 80.6% and 66.2%. Further, the IC50 (curve of compound) was over 1 µM.
In the case of `NS(=O)(=O)OCC1CC(n2ccc3c(NC4CCc5ccccc54)ncnc32)CC1O` (centres undefined) + Cc1cncc(-c2nc(NCCc3c[nH]c4ccccc34)c3ncn(C(C)C)c3n2)c1, the IC50 runs as follows: under setting [1], over 10 µM; under setting [2], over 10 µM; under setting [3], over 10 µM; under setting [4], over 10 µM; under setting [5], 0.512 µM. Besides, the viability, T/C under setting [6] was 129%; the viability, T/C under setting [7] is 140%; the viability, T/C under setting [8] was 145%; the viability, T/C under setting [9] was 86%; the viability, T/C under setting [10] is 76.5%; the viability, T/C under setting [11] is 71.8%. Moreover, the viability, T/C was 131% under setting [12]; 177% under setting [13]; 136% under setting [14]; 100% under setting [15]; 76.7% under setting [16]; 81% under setting [17]. The viability, T/C by setting is: under setting [18], 143%; under setting [19], 166%; under setting [20], 154%; under setting [21], 76.3%; under setting [22], 75%; under setting [23], 79%. Moreover, the viability, T/C runs as follows: under setting [24], 185%; under setting [25], 168%; under setting [26], 158%; under setting [27], 71.2%; under setting [28], 63.3%; under setting [29], 66.1%. The viability, T/C was 94.1% under setting [30]; 96.3% under setting [31]; 54.7% under setting [32]; 44.5% under setting [33]; 44.4% under setting [34]; 41.3% under setting [35].
For the molecule `COc1cc(Nc2ncc3c(n2)-c2ccc(Cl)cc2C(c2c(F)cccc2OC)=NC3)ccc1C(=O)O` + Cc1ccccc1N=Nc1ccc(NC(=O)c2ccnn2C)c(C)c1, the half-maximal inhibitory concentration (IC50) was over 10 µM under setting [1]; over 10 µM under setting [2]; 8.76 µM under setting [3]; over 10 µM under setting [4]; over 10 µM under setting [5]. Moreover, the viability, T/C by setting is: under setting [6], 73.8%; under setting [7], 65.6%; under setting [8], 77.2%; under setting [9], 52.5%; under setting [10], 61%; under setting [11], 50.9%. The viability, T/C runs as follows: under setting [12], 72.5%; under setting [13], 67.1%; under setting [14], 79.2%; under setting [15], 65.9%; under setting [16], 62.7%; under setting [17], 53.2%. For the same molecule, the viability, T/C runs as follows: under setting [18], 81.8%; under setting [19], 81%; under setting [20], 74.4%; under setting [21], 72%; under setting [22], 85.5%; under setting [23], 46.4%. Moreover, the viability, T/C was 87.3% under setting [24]; 72.5% under setting [25]; 66% under setting [26]; 57.9% under setting [27]; 68.9% under setting [28]; 60.2% under setting [29]. Also, the viability, T/C by setting is: under setting [30], 65.3%; under setting [31], 94.1%; under setting [32], 65.7%; under setting [33], 60.5%; under setting [34], 75.8%; under setting [35], 53.8%.
Take `COc1cccc2c1C(=O)c1c(O)c3c(c(O)c1C2=O)CC(O)(C(=O)CO)CC3OC1CC(N)C(O)C(C)O1` (centres undefined) + Cc1cncc(-c2nc(NCCc3c[nH]c4ccccc34)c3ncn(C(C)C)c3n2)c1: the IC50 was 0.332 µM under setting [1]; 0.28 µM under setting [2]; 0.38 µM under setting [3]; 0.258 µM under setting [4]; under 0.0316 µM under setting [5]. In addition, the viability, T/C was 74% under setting [6]; 79.5% under setting [7]; 51.9% under setting [8]; 6.7% under setting [9]; 3.78% under setting [10]; 5.75% under setting [11]. The viability, T/C under setting [12] is 81.5%; the viability, T/C under setting [13] is 72.4%; the viability, T/C under setting [14] is 47.1%; the viability, T/C under setting [15] is 2.96%; the viability, T/C under setting [16] is 3.17%; the viability, T/C under setting [17] was 6.88%. Moreover, the viability, T/C under setting [18] is 89.5%; the viability, T/C under setting [19] was 89%; the viability, T/C under setting [20] is 58.8%; the viability, T/C under setting [21] was 1.94%; the viability, T/C under setting [22] was 4.32%; the viability, T/C under setting [23] was 4.87%. The viability, T/C is 95% under setting [24]; 77.8% under setting [25]; 46.4% under setting [26]; 1.86% under setting [27]; 5.28% under setting [28]; 7.13% under setting [29]. Besides, the viability, T/C is, setting by setting: under setting [30], 48%; under setting [31], 38.4%; under setting [32], 24.3%; under setting [33], 3.36%; under setting [34], 9.24%; under setting [35], 7.74%.
`CC1COCCN1c1cc(-c2ccnn2C)c2ccnc(-c3ccn[nH]3)c2n1` (centres undefined): the viability, T/C was 95.8% and 99.2% and 91% (compound 0.00316 µM); 90.6% and 102% and 103% (compound 0.01 µM); 76.6% and 71.1% and 85.7% (compound 0.0316 µM); 58.4% and 65.3% and 70.1% (compound 0.1 µM); 51.8% and 61.9% and 60.3% (compound 0.316 µM); 43.8% and 46.2% and 45.5% (compound 1 µM). Also, where the note is “curve of compound”, the IC50 was 0.294 µM and > 1 µM and 0.712 µM.

What is called viability, T/C is the ratio of treated to control. One may read the IC50 as the midpoint of a concentration-inhibition curve.
